Test results taken from US9914730B2, “Azaquinazoline inhibitors of Atypical protein Kinase C” (Ignyta, Inc., priority 2012, dated 2018).

target: T1, full-length human PKCι (Homo sapiens, UniProt P41743); experiment: PKCι IC50 IMAP assay, full-length PKCι at 150 μM ATP; format: biochemical; conditions: read-out: IC50 in IMAP assay against full length PKCi at 150 μM ATP
T1 construct: Recombinant, full-length human PKCι expressed in Sf21 insect cells is also commercially available; purchased; host or cells: Sf21 insect cells
T1 sequence (P41743 1-596): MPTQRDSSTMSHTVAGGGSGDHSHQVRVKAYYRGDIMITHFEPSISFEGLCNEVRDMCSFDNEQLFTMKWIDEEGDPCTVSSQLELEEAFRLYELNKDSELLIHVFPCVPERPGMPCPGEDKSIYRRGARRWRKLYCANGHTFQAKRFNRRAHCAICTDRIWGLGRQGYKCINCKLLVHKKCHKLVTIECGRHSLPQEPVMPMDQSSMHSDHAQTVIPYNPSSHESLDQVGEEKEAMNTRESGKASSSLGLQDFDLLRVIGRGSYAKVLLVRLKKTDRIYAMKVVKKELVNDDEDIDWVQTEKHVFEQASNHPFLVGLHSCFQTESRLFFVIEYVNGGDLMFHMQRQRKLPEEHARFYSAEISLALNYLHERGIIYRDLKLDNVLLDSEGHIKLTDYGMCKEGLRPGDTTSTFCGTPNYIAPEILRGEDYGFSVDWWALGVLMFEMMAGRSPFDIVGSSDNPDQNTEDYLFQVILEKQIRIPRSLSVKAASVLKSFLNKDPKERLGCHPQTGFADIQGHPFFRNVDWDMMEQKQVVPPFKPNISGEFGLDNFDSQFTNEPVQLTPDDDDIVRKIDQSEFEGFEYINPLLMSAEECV
How it was run: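 IMAP fluorescence polarisation (ex 485/em 530 nm) read-out; % inhibition set from no-compound (0%) and no-enzyme (100%) controls, IC50 from dose-response curve fit. Sf21-expressed full-length enzyme ~15 pM, 100 nM FAM peptide, ATP 150 μM (5× KM^APP), 60 min at RT.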

Row | SMILES | IC50 [nM]
1 | FC(F)(F)C1CN(c2nc(-c3ccnc(NC4CCCC4)c3)nc3cncc(C4CC4)c23)CCN1 (stereo not drawn) [Example 284, Cyclopentyl-{4-[5-cyclopropyl-4-(3-trifluoromethyl-piperazin-1-yl)-pyrido[3,4-d]pyrimidin-2-yl]-pyridin-2-yl}-amine] | 100 to 1000
2 | c1cc(-c2nc(N3CCNCC3)c3c(C4CC4)cncc3n2)cc(NC23CC4CC(CC(C4)C2)C3)n1 [Example 285, Adamantan-1-yl-[4-(5-cyclopropyl-4-piperazin-1-yl-pyrido[3,4-d]pyrimidin-2-yl)-pyridin-2-yl]-amine] | < 100
3 | NC(=O)c1ccc(Nc2cc(-c3nc(N[C@@H]4CCNC4)c4ccncc4n3)ccn2)cc1 [Example 304, 4-{4-[4-((R)-Pyrrolidin-3-ylamino)-pyrido[3,4-d]pyrimidin-2-yl]-pyridin-2-ylamino}-benzamide] | 100 to 1000
4 | Nc1ccc(C(=O)Nc2cc(-c3nc(N[C@@H]4CCNC4)c4ccncc4n3)ccn2)cc1 [Example 305, 4-Amino-N-{4-[4-((R)-pyrrolidin-3-ylamino)-pyrido[3,4-d]pyrimidin-2-yl]-pyridin-2-yl}-benzamide] | 100 to 1000
5 | c1ccc(Nc2cc(-c3nc(N4C[C@@H]5C[C@H]4CN5)c4ccncc4n3)ccn2)cc1 [Example 306, {4-[(1S,4S)-4-(2,5-Diaza-bicyclo[2.2.1]hept-2-yl)-pyrido[3,4-d]pyrimidin-2-yl]-pyridin-2-yl}-phenyl-amine] | 1000 to 10000
6 | O=C(Nc1cc(-c2nc(N[C@@H]3CCNC3)c3ccncc3n2)ccn1)c1cnccn1 [Example 307, Pyrazine-2-carboxylic acid {4-[4-((R)-pyrrolidin-3-ylamino)-pyrido[3,4-d]pyrimidin-2-yl]-pyridin-2-yl}-amide] | 100 to 1000
7 | NC(=O)c1cccc(Nc2cc(-c3nc(N[C@@H]4CCNC4)c4ccncc4n3)ccn2)c1 [Example 308, 3-{4-[4-((R)-Pyrrolidin-3-ylamino)-pyrido[3,4-d]pyrimidin-2-yl]-pyridin-2-ylamino}-benzamide] | 100 to 1000
8 | Nc1cccc(C(=O)Nc2cc(-c3nc(N[C@@H]4CCNC4)c4ccncc4n3)ccn2)c1 [Example 309, 3-Amino-N-{4-[4-((R)-pyrrolidin-3-ylamino)-pyrido[3,4-d]pyrimidin-2-yl]-pyridin-2-yl}-benzamide] | 100 to 1000
9 | NC(=O)COc1ccc(Nc2cc(-c3nc(N[C@@H]4CCNC4)c4ccncc4n3)ccn2)cc1 [Example 310, 2-(4-{4-[4-((R)-Pyrrolidin-3-ylamino)-pyrido[3,4-d]pyrimidin-2-yl]-pyridin-2-ylamino}-phenoxy)-acetamide] | 100 to 1000
10 | NC(=O)COc1cccc(Nc2cc(-c3nc(N[C@@H]4CCNC4)c4ccncc4n3)ccn2)c1 [Example 311, 2-(3-{4-[4-((R)-Pyrrolidin-3-ylamino)-pyrido[3,4-d]pyrimidin-2-yl]-pyridin-2-ylamino}-phenoxy)-acetamide] | < 100
11 | NC(=O)Cc1ccc(Nc2cc(-c3nc(N[C@@H]4CCNC4)c4ccncc4n3)ccn2)cc1 [Example 313, 2-(4-{4-[4-((R)-Pyrrolidin-3-ylamino)-pyrido[3,4-d]pyrimidin-2-yl]-pyridin-2-ylamino}-phenyl)-acetamide] | < 100
12 | Nc1ccc(CC(=O)Nc2cc(-c3nc(N[C@@H]4CCNC4)c4ccncc4n3)ccn2)cc1 [Example 314, 2-(4-Amino-phenyl)-N-{4-[4-((R)-pyrrolidin-3-ylamino)-pyrido[3,4-d]pyrimidin-2-yl]-pyridin-2-yl}-acetamide] | < 100
13 | NC(=O)Cc1cccc(Nc2cc(-c3nc(N[C@@H]4CCNC4)c4ccncc4n3)ccn2)c1 [Example 316, 2-(3-{4-[4-((R)-Pyrrolidin-3-ylamino)-pyrido[3,4-d]pyrimidin-2-yl]-pyridin-2-ylamino}-phenyl)-acetamide] | 100 to 1000
14 | Nc1cccc(CC(=O)Nc2cc(-c3nc(N[C@@H]4CCNC4)c4ccncc4n3)ccn2)c1 [Example 317, 2-(3-Amino-phenyl)-N-{4-[4-((R)-pyrrolidin-3-ylamino)-pyrido[3,4-d]pyrimidin-2-yl]-pyridin-2-yl}-acetamide] | 100 to 1000
15 | c1cc2c(N[C@@H]3CCNC3)nc(-c3ccnc(Nc4ccc(N5CCOCC5)nc4)c3)nc2cn1 [Example 319, {2-[2-(6-Morpholin-4-yl-pyridin-3-ylamino)-pyridin-4-yl]-pyrido[3,4-d]pyrimidin-4-yl}-(R)-pyrrolidin-3-yl-amine] | < 100
16 | CN1CCN(c2ccc(Nc3cc(-c4nc(N[C@@H]5CCNC5)c5ccncc5n4)ccn3)cn2)CC1 [Example 320, (2-{2-[6-(4-Methyl-piperazin-1-yl)-pyridin-3-ylamino]-pyridin-4-yl}-pyrido[3,4-d]pyrimidin-4-yl)-(R)-pyrrolidin-3-yl-amine] | < 100
17 | N#Cc1ccnc(Nc2cc(-c3nc(N[C@@H]4CCNC4)c4ccncc4n3)ccn2)c1 [Example 321, 2-{4-[4-((R)-Pyrrolidin-3-ylamino)-pyrido[3,4-d]pyrimidin-2-yl]-pyridin-2-ylamino}-isonicotinonitrile] | < 100
18 | c1cc2c(N[C@@H]3CCNC3)nc(-c3ccnc(Nc4ccc(Cn5ccnc5)cc4)c3)nc2cn1 [Example 322, {2-[2-(4-Imidazol-1-ylmethyl-phenylamino)-pyridin-4-yl]-pyrido[3,4-d]pyrimidin-4-yl}-(R)-pyrrolidin-3-yl-amine] | 100 to 1000
19 | N#Cc1ccnc2c1ccn2-c1cc(-c2nc(N[C@@H]3CCNC3)c3ccncc3n2)ccn1 [Example 328, 1-{4-[4-((R)-Pyrrolidin-3-ylamino)-pyrido[3,4-d]pyrimidin-2-yl]-pyridin-2-yl}-1H-pyrrolo[2,3-b]pyridine-4-carbonitrile] | 1000 to 10000

Further lines, results first:

Row | IC50 [nM] | SMILES
20 | 100 to 1000 | Nc1ccccc1C(=O)Nc1cc(-c2nc(N[C@@H]3CCNC3)c3ccncc3n2)ccn1 [Example 303, 2-Amino-N-{4-[4-((R)-pyrrolidin-3-ylamino)-pyrido[3,4-d]pyrimidin-2-yl]-pyridin-2-yl}-benzamide]
21 | < 100 | c1ccc(-c2ccc(Nc3cc(-c4nc(N[C@@H]5CCNC5)c5ccncc5n4)ccn3)nc2)cc1 [Example 318, {2-[2-(5-Phenyl-pyridin-2-ylamino)-pyridin-4-yl]-pyrido[3,4-d]pyrimidin-4-yl}-(R)-pyrrolidin-3-yl-amine]
22 | < 100 | COc1cncc2nc(-c3ccnc(Nc4cccc(OCC(N)=O)c4)c3)nc(N[C@@H]3CCNC3)c12 [Example 323, 2-(3-{4-[5-Methoxy-4-((R)-pyrrolidin-3-ylamino)-pyrido[3,4-d]pyrimidin-2-yl]-pyridin-2-ylamino}-phenoxy)-acetamide]
23 | < 100 | COc1cncc2nc(-c3ccnc(Nc4cccc(CC(N)=O)c4)c3)nc(N[C@@H]3CCNC3)c12 [Example 324, 2-(3-{4-[5-Methoxy-4-((R)-pyrrolidin-3-ylamino)-pyrido[3,4-d]pyrimidin-2-yl]-pyridin-2-ylamino}-phenyl)-acetamide]
24 | 10000 to 40000 | COc1cncc2nc(-c3ccnc(NC(=O)Cc4cccc(N)c4)c3)nc(N[C@@H]3CCNC3)c12 [Example 325, 2-(3-Amino-phenyl)-N-{4-[5-methoxy-4-((R)-pyrrolidin-3-ylamino)-pyrido[3,4-d]pyrimidin-2-yl]-pyridin-2-yl}-acetamide]
25 | 100 to 1000 | COc1cncc2nc(-c3ccnc(Nc4ccc(CC(N)=O)cc4)c3)nc(N[C@@H]3CCNC3)c12 [Example 326, 2-(4-{4-[5-Methoxy-4-((R)-pyrrolidin-3-ylamino)-pyrido[3,4-d]pyrimidin-2-yl]-pyridin-2-ylamino}-phenyl)-acetamide]
26 | < 100 | COc1cncc2nc(-c3ccnc(NC(=O)Cc4ccc(N)cc4)c3)nc(N[C@@H]3CCNC3)c12 [Example 327, 2-(4-Amino-phenyl)-N-{4-[5-methoxy-4-((R)-pyrrolidin-3-ylamino)-pyrido[3,4-d]pyrimidin-2-yl]-pyridin-2-yl}-acetamide]
27 | < 100 | COc1cncc2nc(-c3ccnc(Nc4ccc(-c5ccccc5)cn4)c3)nc(N[C@@H]3CCNC3)c12 [Example 329, {5-Methoxy-2-[2-(5-phenyl-pyridin-2-ylamino)-pyridin-4-yl]-pyrido[3,4-d]pyrimidin-4-yl}-(R)-pyrrolidin-3-yl-amine]
28 | < 100 | COc1cncc2nc(-c3ccnc(Nc4ccc(N5CCOCC5)nc4)c3)nc(N[C@@H]3CCNC3)c12 [Example 330, {5-Methoxy-2-[2-(6-morpholin-4-yl-pyridin-3-ylamino)-pyridin-4-yl]-pyrido[3,4-d]pyrimidin-4-yl}-(R)-pyrrolidin-3-yl-amine]
29 | < 100 | COc1cncc2nc(-c3ccnc(Nc4ccc(N5CCN(C)CC5)nc4)c3)nc(N[C@@H]3CCNC3)c12 [Example 331, (5-Methoxy-2-{2-[6-(4-methyl-piperazin-1-yl)-pyridin-3-ylamino]-pyridin-4-yl}-pyrido[3,4-d]pyrimidin-4-yl)-(R)-pyrrolidin-3-yl-amine]
30 | < 100 | COc1cncc2nc(-c3ccnc(Nc4cc(C#N)ccn4)c3)nc(N[C@@H]3CCNC3)c12 [Example 332, 2-{4-[5-Methoxy-4-((R)-pyrrolidin-3-ylamino)-pyrido[3,4-d]pyrimidin-2-yl]-pyridin-2-ylamino}-isonicotinonitrile]
